What was measured:
[1] = cited from earlier work
Source text: The AMP of Paenibacillus thiaminolyticus NNS5-6 was sensitive to proteinase K and trypsin, confirming its proteinaceous nature. […] The AMP was also stable across a wide pH range (pH 4.5–10) compared with extremely acidic and alkaline environments. This information could help inform temperature conditions and buffer choices during purification and guide the formulation development of drug delivery systems for suitable administration routes.

P. aeruginosa TISTR 357 [2] = experiment: Compatibility with surfactants, residual antibacterial activity; type: physicochemical, Pseudomonas aeruginosa; conditions: no AMP (same value in 1 h, 6 h and 12 h), agar well diffusion, % of non-treated AMP, mean ± SD, n = 3
Procedure: The AMP was dissolved in sterile purified water and adjusted a final concentration to 16 µg/mL. The sensitivity of the AMP to temperatures of 37, 40, 50, 60, 80, and 100 °C, as well as autoclaving at 121 °C for 15 and 30 min was evaluated. The sensitivity of the AMP to proteolytic enzymes with different digesting characteristics was studied by incubating with a concentration of 1 mg/mL of proteinase K, trypsin, and α-chymotrypsin (Sigma-Aldrich, Warren, MI, USA). The compatibility of the AMP with surfactants was evaluated by exposing the AMP to 1% SDS or 1% Triton X-100 (AppliChem GmbH, Darmstadt, Germany). The degradation of the AMP under various pH conditions, including physiological and extended alkaline conditions, was evaluated by adjusting the pH of the solution to 1.2, 4.5, 6.8, 7.4, 8.0, 10.0, 12.0, and 14.0. After incubation, the pH of the AMP solution was neutralized to the original pH before being assessed for antibacterial activity. The antibacterial assay against P. aeruginosa TISTR 357 was conducted using the agar well diffusion assay in triplicate. The stability profiles are presented as the percentage of the residual activity compared with the non-treatment conditions (mean ± SD), and statistical significance was determined by the Student’s t-test at a p-value < 0.05.

K. pneumoniae TISTR 1383 [3] = type: cell-based, Klebsiella pneumoniae; conditions: 37 °C 24 h, triplicate
Procedure: (§1) The MIC and MBC of the purified AMP were determined using the broth microdilution method following the guidance provided by the Clinical and Laboratory Standards Institute (CLSI). P. aeruginosa TISTR 357 and K. pneumoniae TISTR 1383 were cultured on MH agar and incubated at 37 °C for 18 h. A single colony of the tested bacteria was suspended in 0.85% NaCl until the suspension turbidity reached an OD of 0.1 at 625 nm. The cells were then diluted to 5 × 10^6 CFU/mL using cation-adjusted Mueller Hinton broth (CAMHB). The diluted cell suspension of 10 µL was transferred into each well of a 96-well plate with a final volume of 100 µL per well. The AMP was added to achieve final concentrations ranging from 0.125 to 64 µg/mL. Colistin was used as the positive control, while antibiotic-free samples were used as negative controls. The 96-well plate was incubated at 37 °C for 24 h. Each strain was tested in triplicate. […] Subsequently, 100 µL of each dilution was spread on MH agar and then incubated at 37 °C for 24 h. The MBC was identified as the lowest concentration at which no bacterial colony growth was observed on the agar plate.

MRSA Strain 2468 = experiment: Agar well diffusion, antibacterial spectrum; type: cell-based, methicillin-resistant Staphylococcus aureus
Procedure: (§2) The active isolates from the agar overlay assay were transferred into broth media identical to that used during the initial isolation. The cultures were incubated at 30 °C with shaking at 150 rpm for 18 h. The optical density of the starter culture was adjusted to a turbidity of 0.1 OD at 625 nm using a 0.85% sterile NaCl solution before transferring 1 mL of the culture into 49 mL of fresh broth. The inoculum was then incubated at 30 °C with shaking at 150 rpm for 24 h. The CFS was obtained by centrifugation at 10,000× g at 4 °C for 15 min and filtered through a 0.2 µm sterile cellulose acetate syringe filter. The antibacterial activity of the CFS derived from each isolate was investigated using P. aeruginosa TISTR 357, K. pneumoniae TISTR 1383, E. coli TISTR 887, S. typhimurium TISTR 1469, V. parahaemolyticus TISTR 1596, and S. aureus TISTR 517 from the Thailand Institute of Scientific and Technological Research (TISTR), Thailand. The antibiotic-resistant strain, MRSA strain 2468, was kindly provided by the medical technology laboratory at the School of the Allied Health Sciences, Walailak University, Thailand. The microbial indicators were incubated at 37 °C for 18 h on MH agar. […] The experiment was conducted in triplicate, and the mean ± SD of the diameters of the inhibition zones was measured.

E. coli TISTR 887 = experiment: Agar well diffusion, antibacterial spectrum; type: cell-based, Escherichia coli
Procedure: as §2

P. aeruginosa TISTR 357 [4] = type: cell-based, Pseudomonas aeruginosa; conditions: 37 °C 24 h, triplicate
Procedure: as §1

S. aureus TISTR 517 = experiment: Agar well diffusion, antibacterial spectrum; type: cell-based, Staphylococcus aureus
Procedure: as §2

K. pneumoniae TISTR 1383 [5] = experiment: Agar well diffusion, antibacterial spectrum; type: cell-based, Klebsiella pneumoniae
Procedure: as §2

[6] = tested on: S. typhimurium TISTR 1469; experiment: Agar well diffusion, antibacterial spectrum; type: cell-based, Salmonella typhimurium
Procedure: as §2

[7] = tested on: V. parahaemolyticus TISTR 1596; experiment: Agar well diffusion, antibacterial spectrum; type: cell-based, Vibrio parahaemolyticus
Procedure: as §2

P. aeruginosa TISTR 357 [8] = experiment: Agar well diffusion, antibacterial spectrum; type: cell-based, Pseudomonas aeruginosa
Procedure: as §2

[9] = plated on MH agar after microdilution
[10] = agar well diffusion on MH agar, 9 mm wells, 37 °C 18 h, CFS 100 µL, vancomycin 30 µg, colistin 1 µg, mean ± SD, n = 3

Molecule: fusaricidin A
- sensitivity to protease treatment [1]: insensitive to protease treatment
- pH range over which antimicrobial activity is retained ([1]; fusaricidin A produced by Paenibacillus bovis sp. nov BD3526): 2.0 to 9.0

Molecule: CCCCCCCCCCCCOS(=O)(=O)[O-].[Na+] [SDS, reference compound]
- antibacterial activity of surfactant alone against P. aeruginosa TISTR 357, given as % residual activity (P. aeruginosa TISTR 357 [2]; 1% SDS alone): 121.76 ± 2.42 %

Molecule: Colistin
- MIC (K. pneumoniae TISTR 1383 [3]; broth microdilution, CAMHB): 1 µg/mL
- MBC (K. pneumoniae TISTR 1383 [3]; [9]): 1 µg/mL
- Zone of Inhibition (MRSA Strain 2468; [10]): 0.00 ± 0.00 mm
- Zone of Inhibition (E. coli TISTR 887; [10]): 18.13 ± 0.88 mm
- MIC (P. aeruginosa TISTR 357 [4]; broth microdilution, CAMHB): 1 µg/mL
- MBC (P. aeruginosa TISTR 357 [4]; [9]): 1 µg/mL
- Zone of Inhibition (S. aureus TISTR 517; [10]): 0.00 ± 0.00 mm
- Zone of Inhibition (K. pneumoniae TISTR 1383 [5]; [10]): 18.81 ± 0.39 mm
- Zone of Inhibition [6, 10]: 20.4 ± 0.89 mm
- Zone of Inhibition [7, 10]: 18.8 ± 0.76 mm
- Zone of Inhibition (P. aeruginosa TISTR 357 [8]; [10]): 18.05 ± 0.67 mm

Molecule: CN[C@H](CC(C)C)C(=O)N[C@H]1C(=O)N[C@@H](CC(N)=O)C(=O)N[C@H]2C(=O)N[C@H]3C(=O)N[C@H](C(=O)N[C@H](C(=O)O)c4cc(O)cc(O)c4-c4cc3ccc4O)[C@H](O)c3ccc(c(Cl)c3)Oc3cc2cc(c3O[C@@H]2O[C@H](CO)[C@@H](O)[C@H](O)[C@H]2O[C@H]2C[C@](C)(N)[C@H](O)[C@H](C)O2)Oc2ccc(cc2Cl)[C@H]1O [Vancomycin]
- zone of inhibition at 30 µg/disc (MRSA Strain 2468; Staphylococcus aureus, MRSA, 18 h): 21.8 ± 0.78 mm
- zone of inhibition at 30 µg/disc (E. coli TISTR 887; Escherichia coli, TISTR887, 18 h): 0 mm
- zone of inhibition at 30 µg/disc (S. aureus TISTR 517; Staphylococcus aureus, TISTR517, 18 h): 21.6 ± 0.51 mm
- zone of inhibition at 30 µg/disc (K. pneumoniae TISTR 1383 [5]; Klebsiella pneumoniae, TISTR1383, 18 h): 0 mm
- zone of inhibition at 30 µg/disc ([6]; Salmonella enterica, 18 h): 0 mm
- zone of inhibition at 30 µg/disc ([7]; Vibrio parahaemolyticus, TISTR1596, 18 h): 0 mm
- zone of inhibition at 30 µg/disc (P. aeruginosa TISTR 357 [8]; Pseudomonas aeruginosa, TISTR357, 18 h): 0 mm

Molecule: Triton X-100 [reference compound]
- antibacterial activity of surfactant alone against P. aeruginosa TISTR 357, given as % residual activity (P. aeruginosa TISTR 357 [2]; 1% Triton X-100 alone): 126.83 ± 2.72 %
